One experiment deals with LP-1 cells. In words: Biological Assay C: antiproliferative activity on LP-1 cells (CellTiter-Glo). It counts as cell-based, human. As to conditions: 72 hr treatment, averaged values. Put shortly:
(§1)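 CellTiter-Glo luminescence after 72 h exposure, blank (cells read at compound addition) subtracted, growth expressed as % of untreated control; duplicate wells. Suspension cells in RPMI/10% FCS, 2,000–6,000 cells/well, 0.3% DMSO.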
Background: In ATP-based viability assays light output follows the ATP content of the culture.

The target of experiment [1] is T1, Recombinant Human NF-kappaB-Inducing Kinase (NIK/MAP3K14) (Homo sapiens, UniProt Q99558). Put plainly: Biological Assay A2: inhibition of auto-phosphorylation of recombinant human NIK/MAP3K14 (AlphaScreen). In kind it is biochemical. To be noted: auto-phosphorylation; averaged over all measurements on all batches; read-out: αscreen IC50. Put shortly:
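GST-tagged NIK/MAP3K14 (0.2 nM) auto-phosphorylation with 25 microM ATP in 50 mM Tris pH 7.5, 5 mM MgCl2, 1% DMSO; 1 h at 25° C. Phospho-IKK Ser176/180 detected by AlphaScreen; blank-subtracted % inhibition fitted sigmoidally vs log concentration for IC50.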
(Alpha assays give light when donor and acceptor beads are brought close together.)

Experiment [2] deals with P-IKKα levels in L363 cells. Put plainly: Biological Assay B: effect of compounds on P-IKKα levels in L363 cells. To be noted: Homo sapiens, L-363, averaged values, read-out: IKKα Cellular IC50. It counts as cell-based. As for the experimental part:
Effect of Compounds on P-IKKα Levels in L363 Cells
All compounds tested were dissolved in DMSO and further dilutions were made in culture medium. Final DMSO concentration was 1% (v/v) in cell assays. The human L363 cells (ATCC) were cultured in RPMI 1640 medium supplemented with GlutaMax and 10% fetal calf serum (PAA). Cells were routinely maintained at densities of 0.2×10^6 cells per ml-1×10^6 cells per ml at 37° C. in a humidified 5% CO2 atmosphere. Cells were passaged twice a week splitting back to obtain the low density. Cells were seeded in 96 well plates (Nunc 167008) at 2×10^6 per ml media in a volume of 75 μl per well plus 25 μl 1 μg/ml recombinant human B-cell activating factor BAFF/B1YS/TNFSF13B. Seeded cells were incubated at 37° C. in a humidified 5% CO2 atmosphere for 24 hr. Drugs and/or solvents were added (20 μl) to a final volume of 120 μl. Following 2 hr treatment plates were removed from the incubator and cell lysis was achieved by the addition of 30 μl 5× lysis buffer followed by shaking on a plate shaker at 4° C. for 10 min. At the end of this incubation lysed cells were centrifuged at 800×g for 20 min at 4° C. and the lysate was assessed for P-IKKα levels by sandwich immuno-assay carried out in anti-rabbit antibody coated Mesoscale plates. Within an experiment, the results for each treatment were the mean of 2 replicate wells. For initial screening purposes, compounds were tested using an 8 point dilution curve (serial 1:3 dilutions). For each experiment, controls (containing MG132 and BAFF but no test drug) and a blank incubation (containing MG132 and BAFF and 10 μM ADS125117, a test concentration known to give full inhibition) were run in parallel. The blank incubation value was subtracted from all control and sample values. To determine the IC50 a sigmoidal curve was fitted to the plot of % inhibition of control P-IKKα levels versus Log10 compound concentration.

The test system of a further experiment is L-363 cells. Put plainly: Biological Assay C: antiproliferative activity on L-363 cells (CellTiter-Glo). In kind it is cell-based, human. To be noted: 72 hr treatment, averaged values. Put shortly: as §1
In a further experiment the test system is JJN-3 cells. Put plainly: Biological Assay C: antiproliferative activity on JJN-3 cells (CellTiter-Glo). To be noted: 72 hr treatment, averaged values. In kind it is cell-based, human. Put shortly: as §1
In experiment [3] the target is T1, Recombinant Human NF-kappaB-Inducing Kinase (NIK/MAP3K14). In words: Biological Assay A: inhibition of recombinant human NIK/MAP3K14 activity (MBP phosphorylation, Mesoscale). It counts as biochemical. To be noted: averaged over all measurements on all batches; read-out: Biochemical (MSD MBP) IC50. On the procedure:
Inhibition of Recombinant Human NF-kappaB-Inducing Kinase (NIK/MAP3K14) Activity
Assay buffer was 50 mM Tris pH 7.5 containing 1 mM EGTA (ethylene glycol tetraacetic acid), 1 mM DTT (dithiothreitol), 0.1 mM Na3VO4, 5 mM MgCl2, 0.01% Tween 20. Assays were carried out in 384 well Mesoscale high binding plates which had been coated with myelin basic protein (MBP) and blocked with bovine serum albumin to prevent non-specific protein binding. All compounds tested were dissolved in dimethyl sulfoxide (DMSO) and further dilutions were made in assay buffer. Final DMSO concentration was 1% (v/v) in assays. Incubations consisted of compound (1% DMSO in control and blank wells), 25 μM Adenosine-5′-triphosphate (ATP), and 10 nM NIK/MAP3K14 substituting enzyme with buffer in the blank wells. Incubations were carried out for 1 h at 25° C. and were followed by washing and sequential incubation with rabbit anti-phospho-MBP and anti-rabbit Ig Sulfotag antibody before reading bound Sulfotag on a Mesoscale Discovery. Signal obtained in the wells containing blank samples was subtracted from all other wells and IC50's were determined by fitting a sigmoidal curve to % inhibition of control versus Log10 compound concentration.

T1 sequence (Q99558 whole entry): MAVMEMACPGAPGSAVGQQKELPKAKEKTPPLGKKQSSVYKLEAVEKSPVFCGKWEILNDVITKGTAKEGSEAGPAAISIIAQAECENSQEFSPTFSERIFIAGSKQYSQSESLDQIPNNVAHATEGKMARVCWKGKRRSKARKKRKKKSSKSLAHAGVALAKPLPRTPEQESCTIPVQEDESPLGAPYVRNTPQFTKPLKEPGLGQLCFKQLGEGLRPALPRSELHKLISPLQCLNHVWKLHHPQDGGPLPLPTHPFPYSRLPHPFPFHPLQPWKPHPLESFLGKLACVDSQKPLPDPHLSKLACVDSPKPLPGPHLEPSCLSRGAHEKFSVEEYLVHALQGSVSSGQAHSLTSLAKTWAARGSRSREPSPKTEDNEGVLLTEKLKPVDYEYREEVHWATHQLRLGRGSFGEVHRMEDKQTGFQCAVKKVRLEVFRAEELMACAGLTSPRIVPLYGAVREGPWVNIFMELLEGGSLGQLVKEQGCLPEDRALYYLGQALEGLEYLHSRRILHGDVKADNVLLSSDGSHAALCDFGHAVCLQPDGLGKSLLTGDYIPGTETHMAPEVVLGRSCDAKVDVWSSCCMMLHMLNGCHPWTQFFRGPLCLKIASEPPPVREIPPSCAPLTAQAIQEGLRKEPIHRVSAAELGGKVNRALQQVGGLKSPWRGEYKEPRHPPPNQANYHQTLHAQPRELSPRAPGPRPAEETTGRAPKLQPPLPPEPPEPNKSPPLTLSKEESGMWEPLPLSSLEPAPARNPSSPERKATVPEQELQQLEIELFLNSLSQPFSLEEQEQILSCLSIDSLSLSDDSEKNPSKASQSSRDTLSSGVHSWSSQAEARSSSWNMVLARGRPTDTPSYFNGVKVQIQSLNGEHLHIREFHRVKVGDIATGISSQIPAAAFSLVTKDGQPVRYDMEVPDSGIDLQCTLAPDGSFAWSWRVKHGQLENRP

Turning to `COCCCn1cc(-c2nc(N)ncc2F)c2cc(C#CC(C)(O)C3CC3)ncc21` (single isomer, unassigned) [Compound 120], the results for the concentration giving a half-maximal response (EC50) in the experiment on LP-1 cells, in the experiment on L-363 cells and in the experiment on JJN-3 cells were 200 nM, 74 nM and 95 nM, respectively. Moreover, the IC50 in experiment [1] turned out to be 17 nM; in experiment [2], 20 nM.

Consider `CC(O)(C#Cc1cc2c(-c3nc(N)ncc3F)cn(C3COC3)c2cn1)C1CC1` (single isomer, unassigned) [Compound 122], for which the EC50 in the experiment on LP-1 cells amounted to 310 nM; with L-363 cells, 69 nM; with JJN-3 cells it was 100 nM. Further, the IC50 in experiment [1] stood at 26 nM; in experiment [2], 36 nM.

As for `CC(C)(O)C#Cc1cc2c(-c3ccnc(N)n3)c[nH]c2cn1` [Compound 1], the EC50 is 3200 nM in the experiment with LP-1 cells (Homo sapiens, LP-1, 72 h); 180 nM in the experiment on L-363 cells (Homo sapiens, L-363, 72 h); 200 nM with JJN-3 cells (Homo sapiens, JJN-3, 72 h). Also, the IC50 is 6.9 nM in experiment [3], 4 nM in experiment [1] and 93 nM in experiment [2].

For the molecule `COCCn1cc(-c2ccnc(N)n2)c2cc(C#CC(C)(C)O)ncc21` [Compound 2], the EC50 with LP-1 cells (Homo sapiens, LP-1, 72 h) was found to be 1900 nM; with L-363 cells (Homo sapiens, L-363, 72 h), 210 nM; with JJN-3 cells (Homo sapiens, JJN-3, 72 h), 220 nM. Also, the IC50 in experiment [3] worked out at 9.7 nM; in experiment [1], 48 nM; in experiment [2] it was 82 nM.

In the case of `CC(C)(O)C#Cc1cc2c(-c3ccnc(N)n3)cn(CC(C)(C)O)c2cn1` [Compound 3], the EC50 in the experiment on LP-1 cells (Homo sapiens, LP-1, 72 h) is 11000 nM; in the experiment on L-363 cells (Homo sapiens, L-363, 72 h), 230 nM; with JJN-3 cells (Homo sapiens, JJN-3, 72 h), 500 nM. The IC50 is 15 nM in experiment [3], 34 nM in experiment [1] and 75 nM in experiment [2].

With `CNc1nccc(-c2c[nH]c3cnc(C#CC(C)(C)O)cc23)n1` [Compound 4], the concentration for a half-maximal effect (EC50) in the experiment with LP-1 cells (Homo sapiens, LP-1, 72 h) came out at 5300 nM; in the experiment on L-363 cells (Homo sapiens, L-363, 72 h), 400 nM; with JJN-3 cells (Homo sapiens, JJN-3, 72 h) it was 420 nM. Further, the IC50 in experiment [3] worked out at 46 nM; in experiment [1], 21 nM; in experiment [2], 130 nM.

In the case of `Cn1cc(-c2ccnc(N)n2)c2cc(C#CC(C)(C)O)ncc21` [Compound 5], the concentration for a half-maximal effect (EC50) was determined as 320 nM in the experiment on LP-1 cells (Homo sapiens, LP-1, 72 h); 94 nM in the experiment on L-363 cells (Homo sapiens, L-363, 72 h); 160 nM in the experiment with JJN-3 cells (Homo sapiens, JJN-3, 72 h). The IC50 was found to be 1.6 nM in experiment [3], 8 nM in experiment [1] and 30 nM in experiment [2].

Turning to `CC(C)(O)C#Cc1cc2c(-c3ccnc(N)n3)cn(CC3CCOC3)c2cn1` (centres unmarked) [Compound 6], the EC50 in the experiment on LP-1 cells (Homo sapiens, LP-1, 72 h) was found to be 3000 nM; in the experiment with L-363 cells (Homo sapiens, L-363, 72 h), 790 nM; with JJN-3 cells (Homo sapiens, JJN-3, 72 h), 860 nM. The IC50 came out at 2.3 nM in experiment [3], 11 nM in experiment [1] and 68 nM in experiment [2].

As for `COCCCn1cc(-c2nc(N)ncc2F)c2cc(C#CC(C)(C)O)ncc21` [Compound 76], the EC50 in the experiment on LP-1 cells (Homo sapiens, LP-1, 72 h) came out at 300 nM; in the experiment on L-363 cells (Homo sapiens, L-363, 72 h), 110 nM; in the experiment with JJN-3 cells (Homo sapiens, JJN-3, 72 h), 140 nM. The results for the IC50 in experiment [1] and in experiment [2] were 16 nM and 12 nM, respectively.

Take `CC(O)(C#Cc1cc2c(-c3nc(N)ncc3F)cn(C3COC3)c2cn1)C1CC1` (centres unmarked) [Compound 97]: the EC50 in the experiment on LP-1 cells (Homo sapiens, LP-1, 72 h) was determined as 1200 nM; in the experiment on L-363 cells (Homo sapiens, L-363, 72 h), 100 nM; in the experiment on JJN-3 cells (Homo sapiens, JJN-3, 72 h), 170 nM. Besides, the IC50 in experiment [1] amounted to 21 nM; in experiment [2] it was 70 nM.

With `CC(O)(C#Cc1cc2c(-c3nc(N)ncc3F)cn(C3COC3)c2c(C2CC2)n1)C1CC1` (centres unmarked) [Compound 98], the EC50 turned out to be 210 nM in the experiment on LP-1 cells (Homo sapiens, LP-1, 72 h); 42 nM with L-363 cells (Homo sapiens, L-363, 72 h); 78 nM with JJN-3 cells (Homo sapiens, JJN-3, 72 h). Besides, the values for the IC50 in experiment [1] and in experiment [2] were 220 nM and 110 nM, respectively.

`CN1CC(n2cc(-c3nc(N)ncc3F)c3cc(C#CC(C)(O)C4CC4)nc(C4CC4)c32)C1` (centres unmarked) [Compound 102]: the EC50 with LP-1 cells (Homo sapiens, LP-1, 72 h) was determined as 65 nM; in the experiment with L-363 cells (Homo sapiens, L-363, 72 h), 21 nM; in the experiment with JJN-3 cells (Homo sapiens, JJN-3, 72 h) it was 35 nM. Further, the figures for the IC50 in experiment [1] and in experiment [2] were 900 nM and 32 nM, respectively.

As to `CN(C)C(=O)n1cc(-c2nc(N)ncc2F)c2cc(C#CC(C)(O)C3CC3)ncc21` (centres unmarked) [Compound 103], the EC50 in the experiment with LP-1 cells (Homo sapiens, LP-1, 72 h) amounted to 680 nM; in the experiment with L-363 cells (Homo sapiens, L-363, 72 h), 48 nM; in the experiment with JJN-3 cells (Homo sapiens, JJN-3, 72 h) it was 91 nM. For the same molecule, the concentration for half-maximal inhibition (IC50) in experiment [1] came out at 13 nM; in experiment [2], 49 nM.

The term EC50 denotes the concentration needed to bring the measured effect to its halfway point. Low values mean a more potent agent, high ones a less potent agent. As a reminder, the IC50 is the midpoint of a concentration-inhibition curve.

Values taken from patent US9643964B2, “3-(2-aminopyrimidin-4-yl)-5-(3-hydroxypropynyl)-1H-pyrrolo[2,3-C]pyridine derivatives as NIK inhibitors for the treatment of cancer” (Janssen Pharmaceutica NV, priority 2013, dated 2017).
